Results as given in PMC7611415 (Chembiochem : a European journal of chemical biology, 2020).

Target: T1, acetylcholine-binding protein (AcAChBP) (Aplysia californica, UniProt Q8WSF8)
T1 sequence (Q8WSF8 20-236): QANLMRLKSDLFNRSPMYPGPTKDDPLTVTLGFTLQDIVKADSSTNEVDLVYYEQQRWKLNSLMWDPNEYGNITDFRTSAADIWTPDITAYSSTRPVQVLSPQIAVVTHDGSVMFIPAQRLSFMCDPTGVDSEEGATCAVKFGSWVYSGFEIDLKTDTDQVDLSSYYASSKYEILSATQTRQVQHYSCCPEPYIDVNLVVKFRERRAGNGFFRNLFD
Assay: tryptophan fluorescence quenching

C[N+]1(C)CCc2cc3c(cc2[C@H]1[C@@H]1OC(=O)c2c1ccc1c2OCO1)OCO3 [N-methylbicuculline]
Kd: 1200 ± 100 nM
